Six compounds from ChEMBL document CHEMBL5137105, “Tricyclic Carboxamide Derivatives as PRMT5 Inhibitors for Treating Cancer” (ACS Med Chem Lett, 2022) can be followed below.

The nature of this experiment: Antiproliferative activity against human HCT116-MTAP null cells assessed as reduction in cell viability incubated for 6 days by CellTiter-Glo luminescent assay. In kind it is functional, cell-based. To be noted: 144 h. (ATP-based viability assays read luminescence as a measure of living cells.)

A word on the IC50: it is the concentration at which inhibition is half-maximal. In the case of `Cn1ncc2c(N)nc3cc(F)c(C(=O)N(Cc4ccc(C(F)(F)F)cn4)C4CCC4)cc3c21`, the IC50 amounted to 5 nM. Consider `Cn1cc(N(Cc2ccc(C(F)(F)F)cn2)C(=O)c2cc3c4c(c(N)nc3cc2Cl)COC4)cn1`, for which the IC50 was 6 nM. For `C[C@H](c1ncccn1)N(Cc1ccc(C(F)(F)F)cn1)C(=O)c1ccc2nc(N)c3c(c2c1)CCC3`, the IC50 came out at 6 nM. As to `C[C@H](c1ncccn1)N(Cc1ccc(C#N)c(Cl)n1)C(=O)c1ccc2nc(N)c3c(c2c1)COC3`, the IC50 is 5 nM. `CC1OCc2c1c(N)nc1ccc(C(=O)N(Cc3ccc(C(F)(F)F)cn3)Cc3ccnc4[nH]ccc34)cc21` (stereo unspecified): the IC50 was found to be 6 nM. As to `Cn1cc(N(Cc2ccc(C(F)(F)F)cn2)C(=O)c2cc3c(cc2F)nc(N)c2cnn(C)c23)cn1`, the IC50 was 5 nM.
